Experimental data from PMC3906059, “Activation and Inhibition of TMEM16A Calcium-Activated Chloride Channels” (PLoS ONE, 2014).
Several values for one entry are separate records, joined by “and”; a condition that tells them apart may be missing. Identical values can stand only once. Entries after “also recorded” stand apart in the source; their conditions may differ.

Assays:
CaCC of Xenopus oocytes = tested on: CaCC of Xenopus oocytes; parameters: method as in PMID 11279188; conditions: cited from earlier work
TMEM16A (ANO1) [1] = molecular target: T1, TMEM16A (ANO1) (Mus musculus, UniProt Q8BHY3); assay: Activation of ANO1 current by divalent cations, excised inside-out patch with fast solution exchange; type: cell-based
T1 construct: We subcloned the coding region of the cDNA into pEGFP-N3 vector; expressed in transfected cells; host or cells: HEK293 cells
T1 sequence (Q8BHY3 1-956 isoform Q8BHY3-2): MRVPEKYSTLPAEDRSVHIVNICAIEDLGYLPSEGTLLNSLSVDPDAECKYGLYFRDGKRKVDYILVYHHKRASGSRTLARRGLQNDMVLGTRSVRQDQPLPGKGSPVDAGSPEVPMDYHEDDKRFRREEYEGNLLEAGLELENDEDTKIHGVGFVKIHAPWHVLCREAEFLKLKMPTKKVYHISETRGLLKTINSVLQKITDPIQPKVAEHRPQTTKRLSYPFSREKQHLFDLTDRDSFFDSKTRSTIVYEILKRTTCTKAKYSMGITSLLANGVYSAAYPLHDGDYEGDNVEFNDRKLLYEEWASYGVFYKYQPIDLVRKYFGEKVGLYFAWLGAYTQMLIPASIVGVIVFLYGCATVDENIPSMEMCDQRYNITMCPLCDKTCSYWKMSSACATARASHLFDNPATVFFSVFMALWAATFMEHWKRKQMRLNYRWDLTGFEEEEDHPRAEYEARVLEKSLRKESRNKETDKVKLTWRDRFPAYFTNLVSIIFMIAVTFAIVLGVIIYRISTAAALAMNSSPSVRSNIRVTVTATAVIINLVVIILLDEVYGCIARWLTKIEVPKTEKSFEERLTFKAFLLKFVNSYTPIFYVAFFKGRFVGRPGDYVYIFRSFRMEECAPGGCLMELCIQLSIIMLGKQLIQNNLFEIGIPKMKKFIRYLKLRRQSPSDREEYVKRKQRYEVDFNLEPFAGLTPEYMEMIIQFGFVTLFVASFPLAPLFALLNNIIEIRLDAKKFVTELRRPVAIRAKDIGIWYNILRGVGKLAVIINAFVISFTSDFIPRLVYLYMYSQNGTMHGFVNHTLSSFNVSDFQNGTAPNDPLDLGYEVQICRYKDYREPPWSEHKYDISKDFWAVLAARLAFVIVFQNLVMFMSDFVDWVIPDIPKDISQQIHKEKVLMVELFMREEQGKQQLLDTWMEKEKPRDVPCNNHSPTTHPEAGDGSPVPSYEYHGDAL
Description: (§1) The mouse TMEM16A cDNA (NCBI reference sequence: NM_001242349.1) encoding ANO1 CaCC was a generous gift from Dr. Lily Jan. We subcloned the coding region of the cDNA into pEGFP-N3 vector (Clontech Laboratories, Inc.), resulting in a construct in which an enhanced green fluorescent protein (eGFP) was attached to the C-terminus of the ANO1 protein. The sequence was confirmed by commercially-available DNA sequencing service. This eGFP-attached ANO1 cDNA construct was used for channel expression throughout the study. The cDNA was transfected into human embryonic kidney (HEK) 293 cells using lipofectamine transfection methods, [42], [43]. A fluorescent light source and a GFP filter set (Chroma Technology Co.) in the DM IRB inverted microscope (Leica Microsystems) were used to identify transfected cells expressing channel proteins. Electrophysiological experiments were performed ∼24 to 72 hours after transfection.
All chemicals were reagent grade. Regular salts (such as NaCl, NaOH, CaCl2, SrCl2, BaCl2, MgCl2 or sodium salts of various anions) were purchased from Fisher Chemicals (Fair Lawn, NJ), J. T. Baker (Phillipsburg, NJ) or Sigma Chemicals Co. (St. Louis, MO). EGTA, HEPES, and NFA were from Sigma Chemicals Co. Excised inside-out patch-clamp recordings were performed throughout the study. The extracellular (pipette) solution in all experiments contained: 140 mM NaCl, 10 mM HEPES, 0.1 mM EGTA, pH = 7.4. The regular intracellular solution contained 10 mM HEPES and 140 mM sodium salt of Cl^− or other anions. Various concentrations of divalent cations were made by adding certain total concentrations of divalent cations (Cl^− salts) into the solution containing a defined concentration of EGTA. We defined the pipette solution as the “zero-Ca^2+” solution. A solution containing a saturating [Ca^2+] was made by adding 0.12 mM total [Ca^2+] into the aforementioned zero-Ca^2+ solution, resulting in a solution containing ∼20 µM free [Ca^2+]. For making non-saturating [Ca^2+] solutions, the solutions included 1 mM EGTA. To make solutions containing Sr^2+ and Ba^2+, only 0.1 mM EGTA was used. The pH of all solutions was adjusted to 7.4.
Because of weak Mg^2+-EGTA binding, we referred the total [Mg^2+] as the free [Mg^2+]. The free [Ca^2+], [Sr^2+], and [Ba^2+] were calculated using the MaxChelator program (Ver1.2) kindly provided by Chris Patton from the Stanford University. This program was developed based on the binding constants available in the National Institute of Standard and Technology (NIST) between EGTA and these three divalent cations. Table S1, Table S2, and Table S3 list respectively the calculated free [Ca^2+], [Sr^2+], and [Ba^2+] used in this study. All added divalent cations were Cl^− salts. […] For example, in a solution containing 5 mM, 10 mM or 30 mM MgCl2, only 130 mM, 120 mM or 80 mM of NaCl, respectively, were added to the solution.
The patch-clamp recording pipettes were fabricated from borosilicate glass capillaries (World Precision Instruments) using PP830 electrode puller (Narishige International). When filled with the pipette solution, the electrode resistance was ∼1.5–3 MΩ. The experiments were carried out at room temperature (20–23°C) using the Axopatch 200B amplifier controlled by the Digidata I/O converter and the pClamp9 software (Axon Instruments/Molecular Devices).
Solution exchange was achieved using the SF-77 solution exchanger (Warner Instruments). After the excised inside-out patch mode was established, the tip of the patch pipette was positioned at the exit of the solution-delivery pipes of the SF-77 solution exchanger. The switch of solution pipes was controlled by a digital signal delivered from the Digidata 1320 digitizing board. […]

TMEM16A (ANO1) [2] = molecular target: T1, TMEM16A (ANO1); assay: Anion permeability of the ANO1 pore, Erev under bi-ionic conditions; type: cell-based; conditions: for permeability ratio PX/PCl: Ca^2+-activated current, calculated from Erev after junction potential correction; for zero current potential of I–V curve: example ramp −80 to +80 mV, [Ca^2+] = 20 µM, intracellular salt 140 mM (NaHCO3 130 mM + 10 mM NaCl)
Description: as §1
The anion permeability of the ANO1 pore was examined under bi-ionic conditions in which the extracellular solution contained 140 mM NaCl (the zero-Ca^2+ solution). The intracellular solution contained 140 mM sodium salts of various anions with the exception of the HCO3 ^− experiment in which the solution contained 130 mM NaHCO3 and 10 mM NaCl. In all intracellular solutions for the bi-ionic experiments, 0.1 mM EGTA and 0.12 mM total Ca^2+ or Sr^2+ were added to the solution to activate the ANO1 channel (Free [Ca^2+] or [Sr^2+] were saturating concentrations). Erev of the open channel was measured in two ways. First, under voltage-clamp configuration, a 3-sec voltage ramp from −80 mV to +80 mV was applied and the Erev of the leak-subtracted I-V curve was then determined (see Fig. 5 A & B). The second method employed the current-clamp (I = 0) mode in which the patch was exposed to divalent cations throughout the recording (Fig. 5 C and Fig. 6 A & C). When the intracellular solution contained the same concentration of Cl^− as that in the extracellular side, the recorded voltage (EI = 0) was normally close to 0 mV. When the intracellular solution was replaced by the one containing other anions, the value of EI = 0 changed to a new value corresponding to the Erev of the new ionic condition. It is important to point out that the measurement of Erev can be imprecise if the amplitude of the ANO1 current is not within a proper range. Therefore, in permeability ratio measurements we only used the data obtained from patches with a maximal current in the range of 100 pA–1000 pA at +40 mV. All the presented Erev values (and the recording traces for measuring Erev) are not corrected for junction potential difference between solutions because the junction potentials are relatively small. However, the reported permeability ratios were calculated based on the junction potential-corrected Erev. The correction for the junction potential results in very small changes in the calculated permeability ratios.
The permeability ratios of various anions versus Cl^− (PX/PCl, where X represents various anions) were calculated using the Erev obtained from bi-ionic experiments according to the following equation (eq. 3), PX/PCl = exp[Erev/(RT/F)], where R, T, and F are the gas constant, absolute temperature, and Faraday constant, respectively. Comparing the difference between Erev’s of the Ca^2+- and Sr^2+-activated current was performed using the pair t test at the significant level of 0.05.

[3] = Ca^2+-activated current (20 µM), 140 mM extracellular NaCl, anion as intracellular sodium salt 140 mM (HCO3: 130 mM NaHCO3 + 10 mM NaCl), without junction potential correction, averaged

Erev (bi-ionic potential) (TMEM16A (ANO1) [2]; [3])	permeability ratio PX/PCl (TMEM16A (ANO1) [2])	zero current potential of I–V curve (TMEM16A (ANO1) [2]; 140 mM extracellular NaCl)	SMILES	sideness of the block (CaCC of Xenopus oocytes)	voltage dependence of inhibition (CaCC of Xenopus oocytes)	further results
–	–	–	O=C(O)c1c2ccccc2cc2ccccc12 [A9C]	from the extracellular side	voltage dependent	–
–	–	–	[Ba+2].[Cl-].[Cl-] [Ba^2+]	–	–	fraction of maximal current activated (TMEM16A (ANO1) [1]; 404 µM [Ba^2+]): 70–80%; maximal ANO1 current activated by saturating divalent cation compared with Is induced by saturating [Ca^2+] (TMEM16A (ANO1) [1]; Is induced by 20 µM Ca^2+, ±40 mV): can activate the same maximal current; also recorded: activated the channel to the same maximal current level; Hill coefficient (n) of dose-response activation curve (TMEM16A (ANO1) [1]; values covering +40 and −40 mV): 1.1–1.4 and 1–1.5; EC50 (TMEM16A (ANO1) [1]; values covering +40 and −40 mV, read-out: K1/2 of ANO1 activation): 130 to 230 µM and 100 to 200 µM
18.0±1.2 mV	~2.1	+17 mV	[Br-].[Na+] [Br^−]	–	–	Erev (bi-ionic potential) (TMEM16A (ANO1) [2]; current activated by 20 µM Sr^2+, current clamp (I = 0), without correcting for junction potential): 16.2±0.4 mV
–	–	–	O=S(=O)(O)c1cc(N=C=S)ccc1C=Cc1ccc(N=C=S)cc1S(=O)(=O)O [DIDS]	–	voltage dependent	–
–	–	–	O=C(O)c1ccccc1Nc1ccccc1 [DPC]	from the extracellular side	voltage dependent	–
−27.6±2.4 mV	~0.3	-27 mV	O=C([O-])O.[Na+] [HCO3 ^−]	–	–	–
